# Source: US20180185408A1, “ANTIFUNGAL NYLON-3 POLYMERS AND COMBINATION THERAPY USING THEM TO TREAT FUNGAL INFECTIONS” (priority 2016, published 2018)
# Like-named read-outs stand apart in the source and are kept apart here.
# Key:
# [1] = test system: Candida albicans; assay: MIC by broth microdilution (CLSI M27-A3); assay type: cell-based
# [2] = test system: Candida lusitaniae; assay: MIC by broth microdilution (CLSI M27-A3); assay type: cell-based
compound,measurement,setting,value
"C[C@@H]1[C@H](O)[C@@H](C)/C=C/C=C/C=C/C=C/C=C/C=C/C=C/[C@H](O[C@@H]2O[C@H](C)[C@@H](O)[C@H](N)[C@@H]2O)C[C@@H]2O[C@](O)(C[C@@H](O)C[C@@H](O)[C@H](O)CC[C@@H](O)C[C@@H](O)CC(=O)O[C@H]1C)C[C@H](O)[C@H]2C(=O)O [AMB, amphotericin B]",MIC,"[1]; C. albicans (E4), Amp B Resistant, RPMI 1640 (0.2% Glucose), […]10^5 cells/mL, 30° C.",3.13 µg/mL
same,MIC,"[1]; C. albicans (E4), […]10^3 cells/mL, 35°C, read-out: MIC",3.4 µM
same,MIC,"[1]; C. albicans (Gu5), Fluconazole Resistant, RPMI 1640 (0.2% Glucose), […]10^5 cells/mL, 30° C.",0.78 µg/mL
same,MIC,"[1]; C. albicans (Gu5), […]10^3 cells/mL, 35°C, read-out: MIC",0.9 µM
same,MIC,"[1]; C. albicans (K1), Fluconazole Resistant, RPMI 1640 (0.2% Glucose), […]10^5 cells/mL, 30° C.",0.78 µg/mL
same,MIC,"[1]; C. albicans (K1), […]10^3 cells/mL, 35°C, read-out: MIC",1.7 µM
same,MIC,"[1]; C. albicans (SC5314), […]10^3 cells/mL, 35°C, read-out: MIC",0.9 µM
same,MIC,"[1]; C. albicans (SCG5314), Sensitive, RPMI 1640 (0.2% Glucose), […]10^5 cells/mL, 30° C.",0.78 µg/mL
same,MIC,"[1]; E4, […]10^3 cells/mL, 35°C, OD600 24 h, avg.",6.3 µg/mL
same,MIC,"[1]; E4, […]10^3 cells/mL, 35°C, OD600 24 h, avg., read-out: MIC",6.8 µM
same,MIC,"[1]; E4, […]10^3 cells/mL, 35°C, OD600 24 h, trial 1",6.3 µg/mL
same,MIC,"[1]; E4, […]10^3 cells/mL, 35°C, OD600 24 h, trial 1, read-out: MIC",6.8 µM
same,MIC,"[1]; E4, […]10^3 cells/mL, 35°C, OD600 24 h, trial 2",6.3 µg/mL
same,MIC,"[1]; E4, […]10^3 cells/mL, 35°C, OD600 24 h, trial 2, read-out: MIC",6.8 µM
same,MIC,"[1]; E4, […]10^5 cells/mL, 30°C, OD600 48 h, avg.",3.1 µg/mL
same,MIC,"[1]; E4, […]10^5 cells/mL, 30°C, OD600 48 h, avg., read-out: MIC",3.4 µM
same,MIC,"[1]; E4, […]10^5 cells/mL, 30°C, OD600 48 h, trial 1",3.1 µg/mL
same,MIC,"[1]; E4, […]10^5 cells/mL, 30°C, OD600 48 h, trial 1, read-out: MIC",3.4 µM
same,MIC,"[1]; E4, […]10^5 cells/mL, 30°C, OD600 48 h, trial 2",3.1 µg/mL
same,MIC,"[1]; E4, […]10^5 cells/mL, 30°C, OD600 48 h, trial 2, read-out: MIC",3.4 µM
same,MIC,"[1]; Gu5, […]10^3 cells/mL, 35°C, OD600 24 h, avg.",2.0 µg/mL
same,MIC,"[1]; Gu5, […]10^3 cells/mL, 35°C, OD600 24 h, avg., read-out: MIC",2.2 µM
same,MIC,"[1]; Gu5, […]10^3 cells/mL, 35°C, OD600 24 h, trial 1",<1.6 µg/mL
same,MIC,"[1]; Gu5, […]10^3 cells/mL, 35°C, OD600 24 h, trial 1, read-out: MIC",<1.7 µM
same,MIC,"[1]; Gu5, […]10^3 cells/mL, 35°C, OD600 24 h, trial 2",3.1 µg/mL
same,MIC,"[1]; Gu5, […]10^3 cells/mL, 35°C, OD600 24 h, trial 2, read-out: MIC",3.4 µM
same,MIC,"[1]; Gu5, […]10^5 cells/mL, 30°C, OD600 48 h, avg.",0.8 µg/mL
same,MIC,"[1]; Gu5, […]10^5 cells/mL, 30°C, OD600 48 h, avg., read-out: MIC",0.9 µM
same,MIC,"[1]; Gu5, […]10^5 cells/mL, 30°C, OD600 48 h, trial 1",0.8 µg/mL
same,MIC,"[1]; Gu5, […]10^5 cells/mL, 30°C, OD600 48 h, trial 1, read-out: MIC",0.9 µM
same,MIC,"[1]; Gu5, […]10^5 cells/mL, 30°C, OD600 48 h, trial 2",0.8 µg/mL
same,MIC,"[1]; Gu5, […]10^5 cells/mL, 30°C, OD600 48 h, trial 2, read-out: MIC",0.9 µM
same,MIC,"[1]; K1, […]10^3 cells/mL, 35°C, OD600 24 h, avg.",<1.6 µg/mL
same,MIC,"[1]; K1, […]10^3 cells/mL, 35°C, OD600 24 h, avg., read-out: MIC",<1.7 µM
same,MIC,"[1]; K1, […]10^3 cells/mL, 35°C, OD600 24 h, trial 1",<1.6 µg/mL
same,MIC,"[1]; K1, […]10^3 cells/mL, 35°C, OD600 24 h, trial 1, read-out: MIC",<1.7 µM
same,MIC,"[1]; K1, […]10^3 cells/mL, 35°C, OD600 24 h, trial 2",<1.6 µg/mL
same,MIC,"[1]; K1, […]10^3 cells/mL, 35°C, OD600 24 h, trial 2, read-out: MIC",<1.7 µM
same,MIC,"[1]; K1, […]10^5 cells/mL, 30°C, OD600 48 h, avg.",1.6 µg/mL
same,MIC,"[1]; K1, […]10^5 cells/mL, 30°C, OD600 48 h, avg., read-out: MIC",1.7 µM
same,MIC,"[1]; K1, […]10^5 cells/mL, 30°C, OD600 48 h, trial 1",1.6 µg/mL
same,MIC,"[1]; K1, […]10^5 cells/mL, 30°C, OD600 48 h, trial 1, read-out: MIC",1.7 µM
same,MIC,"[1]; K1, […]10^5 cells/mL, 30°C, OD600 48 h, trial 2",1.6 µg/mL
same,MIC,"[1]; K1, […]10^5 cells/mL, 30°C, OD600 48 h, trial 2, read-out: MIC",1.7 µM
same,MIC,"[1]; SC5314, […]10^3 cells/mL, 35°C, OD600 24 h, avg.",4.7 µg/mL
same,MIC,"[1]; SC5314, […]10^3 cells/mL, 35°C, OD600 24 h, avg., read-out: MIC",5.1 µM
same,MIC,"[1]; SC5314, […]10^3 cells/mL, 35°C, OD600 24 h, trial 1",3.1 µg/mL
same,MIC,"[1]; SC5314, […]10^3 cells/mL, 35°C, OD600 24 h, trial 1, read-out: MIC",3.4 µM
same,MIC,"[1]; SC5314, […]10^3 cells/mL, 35°C, OD600 24 h, trial 2",6.3 µg/mL
same,MIC,"[1]; SC5314, […]10^3 cells/mL, 35°C, OD600 24 h, trial 2, read-out: MIC",6.8 µM
same,MIC,"[1]; SC5314, […]10^5 cells/mL, 30°C, OD600 48 h, avg.",0.8 µg/mL
same,MIC,"[1]; SC5314, […]10^5 cells/mL, 30°C, OD600 48 h, avg., read-out: MIC",0.9 µM
same,MIC,"[1]; SC5314, […]10^5 cells/mL, 30°C, OD600 48 h, trial 1",0.8 µg/mL
same,MIC,"[1]; SC5314, […]10^5 cells/mL, 30°C, OD600 48 h, trial 1, read-out: MIC",0.9 µM
same,MIC,"[1]; SC5314, […]10^5 cells/mL, 30°C, OD600 48 h, trial 2",0.8 µg/mL
same,MIC,"[1]; SC5314, […]10^5 cells/mL, 30°C, OD600 48 h, trial 2, read-out: MIC",0.9 µM
same,MIC,"[2]; C. Lusitania (CL3), Sensitive, RPMI 1640 (0.2% Glucose), […]10^5 cells/mL, 30° C.",0.4 µg/mL
same,MIC,"[2]; C. lusitaniae (CL3), […]10^3 cells/mL, 35°C, read-out: MIC",0.4 µM
same,MIC,"[2]; CL3, […]10^3 cells/mL, 35°C, OD600 24 h, avg.",<1.6 µg/mL
same,MIC,"[2]; CL3, […]10^3 cells/mL, 35°C, OD600 24 h, avg., read-out: MIC",<1.7 µM
same,MIC,"[2]; CL3, […]10^3 cells/mL, 35°C, OD600 24 h, trial 1",<1.6 µg/mL
same,MIC,"[2]; CL3, […]10^3 cells/mL, 35°C, OD600 24 h, trial 1, read-out: MIC",<1.7 µM
same,MIC,"[2]; CL3, […]10^3 cells/mL, 35°C, OD600 24 h, trial 2",<1.6 µg/mL
same,MIC,"[2]; CL3, […]10^3 cells/mL, 35°C, OD600 24 h, trial 2, read-out: MIC",<1.7 µM
same,MIC,"[2]; CL3, […]10^5 cells/mL, 30°C, OD600 48 h, avg.",0.4 µg/mL
same,MIC,"[2]; CL3, […]10^5 cells/mL, 30°C, OD600 48 h, avg., read-out: MIC",0.4 µM
